Laboratory results: ChEMBL document CHEMBL1137058, “Novel 2-oxoimidazolidine-4-carboxylic acid derivatives as hepatitis C virus NS3-4A serine protease inhibitors: synthesis, activity, and X-ray crystal structure of an enzyme inhibitor complex” (Bioorg Med Chem Lett, 2004)

Target: NS3 (Hepatitis C virus, UniProt A3EZJ3)
Experiment: Inhibition of Hepatitis C virus NS3 serine protease
Set-up: species or system Hepacivirus hominis

NS3, sequence (A3EZJ3 whole entry): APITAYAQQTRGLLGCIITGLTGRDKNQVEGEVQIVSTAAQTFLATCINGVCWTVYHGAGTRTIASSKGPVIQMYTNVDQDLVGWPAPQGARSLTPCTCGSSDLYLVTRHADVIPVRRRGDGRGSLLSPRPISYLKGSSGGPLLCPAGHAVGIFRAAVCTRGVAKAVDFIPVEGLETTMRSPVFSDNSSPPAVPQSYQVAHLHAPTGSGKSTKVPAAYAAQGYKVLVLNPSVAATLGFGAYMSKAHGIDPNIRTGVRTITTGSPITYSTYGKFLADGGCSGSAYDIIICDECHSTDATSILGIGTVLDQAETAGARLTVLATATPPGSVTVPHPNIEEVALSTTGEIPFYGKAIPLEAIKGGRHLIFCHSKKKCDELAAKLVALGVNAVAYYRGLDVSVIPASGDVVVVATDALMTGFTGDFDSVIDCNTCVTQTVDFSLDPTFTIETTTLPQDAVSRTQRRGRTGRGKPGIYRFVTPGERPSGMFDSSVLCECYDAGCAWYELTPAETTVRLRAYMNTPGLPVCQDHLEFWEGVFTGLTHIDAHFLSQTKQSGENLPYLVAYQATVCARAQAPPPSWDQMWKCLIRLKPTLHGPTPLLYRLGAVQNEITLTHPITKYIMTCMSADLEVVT

Ki [µM] | SMILES
46 | C=CCNC(=O)C(=O)[C@H](CCC)NC(=O)[C@@H]1CNC(=O)N1C(=O)[C@@H](NC(=O)[C@@H](NC(=O)[C@H](CCC(=O)O)NC(=O)[C@H](CCC(=O)O)NC(C)=O)C(C)C)C(C)C
> 100 | C=CCOC(=O)CNC(=O)C(=O)C(CCC)NC(=O)[C@@H]1CN(Cc2ccc(Cl)c(Cl)c2)C(=O)N1C(=O)[C@@H](NC(=O)[C@@H](NC(=O)[C@H](CCC(=O)OC(C)(C)C)NC(=O)[C@H](CCC(=O)OC(C)(C)C)NC(C)=O)C(C)C)C(C)C (stereo partly specified)
0.31 | C=CCOC(=O)CNC(=O)C(=O)[C@H](CCC)NC(=O)[C@@H]1CN(Cc2ccc(Cl)c(Cl)c2)C(=O)N1C(=O)[C@@H](NC(=O)[C@@H](NC(=O)[C@H](CCC(=O)O)NC(=O)[C@H](CCC(=O)O)NC(C)=O)C(C)C)C(C)C
1 | C=CCOC(=O)CNC(=O)C(=O)[C@H](CCC)NC(=O)[C@@H]1CN(Cc2ccccc2)C(=O)N1C(=O)[C@@H](NC(=O)[C@@H](NC(=O)[C@H](CCC(=O)O)NC(=O)[C@H](CCC(=O)O)NC(C)=O)C(C)C)C(C)C
> 100 | C=CCOC(=O)CNC(=O)C(=O)C(CCC)NC(=O)[C@@H]1CN(Cc2ccccc2)C(=O)N1C(=O)[C@@H](NC(=O)[C@@H](NC(=O)[C@H](CCC(=O)OC(C)(C)C)NC(=O)[C@H](CCC(=O)OC(C)(C)C)NC(C)=O)C(C)C)C(C)C (stereo partly specified)
150 | C=CCNC(=O)C(=O)C(CCC)NC(=O)[C@@H]1CN(CC(=O)OCC)C(=O)N1C(=O)[C@@H](NC(=O)OC(C)(C)C)C(C)C (stereo partly specified)
4 | C=CCNC(=O)C(=O)[C@H](CCC)NC(=O)[C@@H]1CN(CC(=O)OCC)C(=O)N1C(=O)[C@@H](NC(=O)[C@@H](NC(=O)[C@H](CCC(=O)O)NC(=O)[C@H](CCC(=O)O)NC(C)=O)C(C)C)C(C)C
69 | C=CCNC(=O)C(=O)[C@H](CCC)NC(=O)[C@@H]1CNC(=O)N1C(=O)[C@@H](NC(=O)[C@@H](NC(=O)[C@H](CCC(=O)OC(C)(C)C)NC(=O)[C@H](CCC(=O)OC(C)(C)C)NC(C)=O)C(C)C)C(C)C
1 | C=CCNC(=O)C(=O)[C@H](CCC)NC(=O)[C@@H]1CN(Cc2ccccc2)C(=O)N1C(=O)[C@@H](NC(=O)[C@@H](NC(=O)[C@H](CCC(=O)O)NC(=O)[C@H](CCC(=O)O)NC(C)=O)C(C)C)C(C)C
30 | C=CCNC(=O)C(=O)[C@H](CCC)NC(=O)[C@@H]1CN(CC(=O)OCC)C(=O)N1C(=O)[C@@H](NC(=O)[C@@H](NC(=O)[C@H](CCC(=O)OC(C)(C)C)NC(=O)[C@H](CCC(=O)OC(C)(C)C)NC(C)=O)C(C)C)C(C)C
61 | C=CCNC(=O)C(=O)[C@H](CCC)NC(=O)[C@@H]1CN(Cc2ccccc2)C(=O)N1C(=O)[C@@H](NC(=O)[C@@H](NC(=O)[C@H](CCC(=O)OC(C)(C)C)NC(=O)[C@H](CCC(=O)OC(C)(C)C)NC(C)=O)C(C)C)C(C)C
